Data: patent US7459444B2, “Inhibitors of chymase” (Janssen Pharmaceutica N.V., priority 2004, dated 2008)

How the values were obtained:
[1] = Pharmacokinetic assay for evaluation of oral absorption potential; type: in vivo; conditions: male Sprague Dawley rats, oral gavage 15 mg/kg in 20% hydroxy-beta-cyclo dextran, plasma, N = 2; for Cmax at 2 h: rat
Experimental: Male Sprague Dawley rats, weighing 250-300 g, were fasted overnight then dosed by oral gavage at a level of 15 mg/kg with a compound. Compounds were formulated in 20% hydroxy-beta-cyclo dextran.
Blood samples (0.5 mL) were collected into lithium heparinized tubes at 0.5, 1.0 and 2.0 h post dose via orbital sinus puncture. Blood samples were centrifuged at 2000 rpm for ˜3 min for cell removal, approximately 200 μL of plasma supernatant was then transferred to a clean vial, frozen then placed on dry ice and delivered to SFBC Analytical Labs, Inc. for analysis.
Plasma samples were prepared as follows. Two hundred microliters of acetonitrile containing 1 μM internal standard was added to 100 μL of plasma to precipitate proteins. Samples were centrifuged at 5000 g for 5 min and supernatant removed for analysis by LC-MS. Two hundred microliters of water was added to adjust sample solvent strength and prevent peak splitting. Calibration standards were prepared by adding appropriate volumes of stock solution directly into plasma and treated identically to collected plasma samples. Calibration standards were prepared in the range of 0.1 to 10 μM for quantitation. LC-MS analysis was performed using MRM (Multiple Reaction Monitoring) detection of characteristic ions for each drug candidate and internal standard.

[2] = molecular target: T1, human skin chymase (Homo sapiens, UniProt P23946); experiment: Enzyme-catalyzed hydrolysis assay (chymase inhibition); type: biochemical; conditions: 10 nM enzyme, 0.7 mM Suc-Ala-Ala-Pro-Phe-pNa, pH 8.0, 37° C., 30 minutes
T1 construct: using human skin chymase (Cortex Biochem); purchased Cortex Biochem
T1 sequence (P23946 22-247): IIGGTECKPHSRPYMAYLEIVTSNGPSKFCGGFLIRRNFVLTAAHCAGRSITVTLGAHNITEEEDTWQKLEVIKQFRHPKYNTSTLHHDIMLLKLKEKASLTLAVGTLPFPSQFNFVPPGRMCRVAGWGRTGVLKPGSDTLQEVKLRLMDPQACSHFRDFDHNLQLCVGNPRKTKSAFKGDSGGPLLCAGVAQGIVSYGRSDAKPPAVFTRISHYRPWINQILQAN
Experimental: Enzyme-catalyzed hydrolysis rates were measured spectro-photometrically using human skin chymase (Cortex Biochem), a chromogenic substrate (Suc-Ala-Ala-Pro-Phe-pNa) (Bachem) in aqueous buffer (450 mM Tris, 1800 mM NaCl, pH 8.0), and a microplate reader (Molecular Devices). […] Percent inhibition was calculated by comparing the initial reaction slopes of the samples without inhibitor to those with inhibitor. IC50 values were determined using a four parameter fit logistics model. The term “NT” indicates a compound that was not tested.

Row | IC50 [2] [µM] | SMILES | other results
1 | 5.8 | O=C(NCc1ccccc1)c1cc2ccccc2cc1NC(=O)C(c1cccc2ccccc12)P(=O)(O)O (centres unmarked) [Cpd 119, [(3-Benzylcarbamoyl-naphthalen-2-ylcarbamoyl)-naphthalen-1-yl-methyl]-phosphonic acid] | –
2 | 0.31 ± 0.04 | O=C(Nc1ccc2ccccc2c1)C(c1csc2ccc(Cl)cc12)P(=O)(O)CCCc1ccc2c(c1)OCO2 (centres unmarked) [Cpd 39] | –
3 | 0.371 ± 0.11 | O=P(O)(O)C(C(=S)Nc1ccc2ccccc2c1)c1csc2ccc(Cl)cc12 (centres unmarked) [Cpd 45, [(5-Chloro-benzo[b]thiophen-3-yl)-(naphthalen-2-ylthiocarbamoyl)-methyl]-phosphonic acid] | –
4 | 2.04 | O=C(Nc1cc2ccccc2cc1C(=O)N1CCC(c2ccccc2)C1)C(c1cccc2ccccc12)P(=O)(O)O (centres unmarked) [Cpd 87] | –
5 | 8.11 ± 4.75 | COC(=O)COc1c(NC(=O)C(c2cccc3ccccc23)P(=O)(O)O)ccc2ccccc12 (centres unmarked) [Cpd 134, [2-(2-Naphthalen-1-yl-2-phosphono-acetylamino)-naphthalen-1-yloxy]-acetic acid methyl ester] | –
6 | 7.9 | Nc1cc2ccccc2cc1NC(=O)C(c1cccc2ccccc12)P(=O)(O)O (centres unmarked) [Cpd 132] | –
7 | 4.8 ± 1.69 | O=C(Nc1cc2ccccc2cc1C(=O)N1CCC(c2nc3ccccc3s2)CC1)C(c1cccc2ccccc12)P(=O)(O)O (centres unmarked) [Cpd 113] | –
8 | 1.39 ± 0.554 | COc1ccc2c(c1)c(C(C(=O)Nc1ccc3ccccc3c1)P(=O)(O)O)cn2C (centres unmarked) [Cpd 74] | –
9 | 0.388 ± 0.116 | CN(C(=O)c1cc2ccccc2cc1NC(=O)C(c1cccc2ccccc12)P(=O)(O)O)C1CC=C(c2ccccc2)CC1 (centres unmarked) [Cpd 46, ({3-[Methyl-(4-phenyl-cyclohex-3-enyl)-carbamoyl]-naphthalen-2-ylcarbamoyl}-naphthalen-1-yl-methyl)-phosphonic acid] | –
10 | 0.21 ± 0.01 | CP(=O)(O)C(C(=O)Nc1ccc2ccccc2c1)c1c(C(=O)N2CCC(c3ccccc3)CC2)sc2ccccc12 (centres unmarked) [Cpd 32, Methyl-{(naphthalen-2-ylcarbamoyl)-[2-(4-phenyl-piperidine-1-carbonyl)-benzo[b]thiophen-3-yl]-methyl}-phosphinic acid] | –
11 | 2.8 | O=C(Nc1ccc2ccccc2n1)C(c1cccc2ccccc12)P(=O)(O)O (centres unmarked) [Cpd 96] | –
12 | 1.7 ± 0.41 | O=C(Nc1ccc2ccccc2c1)C(c1cn(-c2ccccc2)c2ccccc12)P(=O)(O)O (centres unmarked) [Cpd 82, [(Naphthalen-2-ylcarbamoyl)-(1-phenyl-1H-indol-3-yl)-methyl]-phosphonic acid] | –
13 | 5.86 ± 1.08 | NS(=O)(=O)OCC(C(=O)Nc1ccc2ccccc2c1)c1csc2ccc(Cl)cc12 (centres unmarked) [Cpd 120, Sulfamic acid 2-(5-chloro-benzo[b]thiophen-3-yl)-2-(naphthalen-2-ylcarbamoyl)-ethyl ester] | –
14 | 0.029 ± 0.01 | O=C(Nc1ccc2ccccc2c1)C(c1csc2ccc(F)cc12)P(=O)(O)O (centres unmarked) [Cpd 10] | –
15 | 0.609 | O=C(Nc1cnc2ccccc2c1)C(c1cccc2ccccc12)P(=O)(O)O (centres unmarked) [Cpd 57] | –
16 | 8.08 ± 3.15 | O=C(Nc1cc2ccccc2cc1CNCCCCCO)C(c1cccc2ccccc12)P(=O)(O)O (centres unmarked) [Cpd 133] | –
17 | 0.038 ± 0.013 | Nc1ccc(/C=C/NC(=O)C(c2csc3ccc(Cl)cc23)P(=O)(O)O)cc1 (centres unmarked) [Cpd 12] | –
18 | 1.9 ± 0.4 | O=C(Nc1ccc2ccccc2c1)C(C1=CS(=O)(=O)c2ccc(Cl)cc21)P(=O)(O)O (centres unmarked) [Cpd 86, [(5-Chloro-1,1-dioxo-1H-1λ^6-benzo[b]thiophen-3-yl)-(naphthalen-2-ylcarbamoyl)-methyl]-phosphonic acid] | –
19 | 0.83 ± 0.18 | Cn1cc(C(C(=O)Nc2ccc3ccccc3c2)P(=O)(O)O)c2c(Cl)cccc21 (centres unmarked) [Cpd 63, [(4-Chloro-1-methyl-1H-indol-3-yl)-(naphthalen-2-ylcarbamoyl)-methyl]-phosphonic acid] | –
20 | 0.25 ± 0.12 | O=C(N/C=C/c1ccccc1)C(c1cccc2ccccc12)P(=O)(O)O (centres unmarked) [Cpd 37] | –
21 | 4.4 | O=C(C=Cc1cc2ccccc2cc1NC(=O)C(c1cccc2ccccc12)P(=O)(O)O)NCc1ccccc1 (centres unmarked) [Cpd 109, {[3-(2-Benzylcarbamoyl-vinyl)-naphthalen-2-ylcarbamoyl]-naphthalen-1-yl-methyl}-phosphonic acid] | –

The next lines start with the compound.

Row | SMILES | IC50 [2] [µM] | other results
22 | CC(C)(C)C(=O)OCOP(C)(=O)C(C(=O)N/C=C/c1ccc(F)c(F)c1)c1csc2ccc(Cl)cc12 (centres unmarked) [Cpd 182] | – | Cmax at 2 h [1]: 11.8 ± 3.26 µM
23 | O=C(NC=Cc1ccccc1)C(c1cccc2ccccc12)P1(=O)OCCCO1 (centres unmarked) [Cpd 178, 2-Naphthalen-1-yl-2-(2-oxo-2l5-[1,3,2]dioxaphosphinan-2-yl)-N-styryl-acetamide] | – | Cmax ([1]; read-out: CMax (μM) @ 2 h): 4.1 ± 0.28 µM
24 | CC(C)(C)C(=O)OCOP(=O)(OCOC(=O)C(C)(C)C)C(C(=O)N/C=C/c1ccc(F)c(F)c1)c1csc2ccc(Cl)cc12 (centres unmarked) [Cpd 186, 2,2-Dimethyl-propionic acid {(5-chloro-benzo[b]thiophen-3-yl)-[2-(3,4-difluoro-phenyl)-vinylcarbamoyl]-methyl}-(2,2-dimethyl-propionyloxymethoxy)-phosphinoyloxymethyl ester] | – | Cmax at 2 h [1]: 20.1 ± 3.5 µM
25 | CCN(CC)C(=O)COP(=O)(OCC(=O)N(CC)CC)C(C(=O)N/C=C/c1ccccc1)c1cccc2ccccc12 (centres unmarked) [Cpd 180, (Naphthalen-1-yl-styrylcarbamoyl-methyl)-phosphonic acid didiethylcarbamoylmethyl ester] | – | Cmax at 2 h [1]: < 0.1 µM
26 | CP(=O)(OCCN)C(C(=O)NC=Cc1ccc(F)c(F)c1)c1csc2ccc(Cl)cc12 (centres unmarked) [Cpd 184, {(5-Chloro-benzo[b]thiophen-3-yl)-[2-(3,4-difluoro-phenyl)-vinylcarbamoyl]-methyl}-methyl-phosphinic acid 2-amino-ethyl ester] | – | Cmax at 2 h [1]: 0.1 ± 0.05 µM
27 | CP(=O)(O)C(C(=O)N/C=C/c1cc(F)ccc1F)c1csc2ccc(Cl)cc12 (centres unmarked) [Cpd 169] | 0.042 | –
28 | CP(=O)(O)C(C(=O)N/C=C/c1cc(F)cc(F)c1)c1csc2ccc(Cl)cc12 (centres unmarked) [Cpd 162] | 0.009 | –
29 | O=C(NC=Cc1ccc(O)cc1)C(c1csc2ccc(Cl)cc12)P(=O)(O)O (centres unmarked) [Cpd 66] | 0.868 ± 0.13 | –
30 | O=C(N/C=C/c1ccc(F)c(F)c1)C(c1csc2ccc(Cl)cc12)P1(=O)OCCCO1 (centres unmarked) [Cpd 189, 2-(5-Chloro-benzo[b]thiophen-3-yl)-N-[2-(3,4-difluoro-phenyl)-vinyl]-2-(2-oxo-2,5-[1,3,2]dioxaphosphinan-2-yl)-acetamide] | – | Cmax at 2 h [1]: 21.1 ± 2.3 µM
31 | CC(C)(C)C(=O)OCOP(=O)(O)C(C(=O)N/C=C/c1ccc(F)c(F)c1)c1csc2ccc(Cl)cc12 (centres unmarked) [Cpd 187, 2,2-Dimethyl-propionic acid {(5-chloro-benzo[b]thiophen-3-yl)-[2-(3,4-difluoro-phenyl)-vinylcarbamoyl]-methyl}-hydroxy-phosphinoyloxymethyl ester] | – | Cmax at 2 h [1]: 21.4 ± 11 µM
32 | CP(=O)(O)C(C(=O)N/C=C/c1cccc(Br)c1)c1csc2ccc(Cl)cc12 (centres unmarked) [Cpd 167] | 0.017 ± 0.04 | –
33 | CP(=O)(O)C(C(=O)N/C=C/c1cccc([N+](=O)[O-])c1)c1csc2ccc(Cl)cc12 (centres unmarked) [Cpd 166] | 0.0387 ± 0.02 | –
34 | CP(=O)(O)C(C(=O)N/C=C/c1ccc(F)cc1)c1csc2ccc(Cl)cc12 (centres unmarked) [Cpd 24] | 0.1 ± 0.033 | –
35 | Cn1cc(C(C(=O)N/C=C/c2cccc(F)c2)P(C)(=O)O)c2cc(Cl)ccc21 (centres unmarked) [Cpd 6] | 0.02 | –
36 | CC(C)(C)C(=O)OCOP(=O)(O)C(C(=O)N/C=C/c1ccccc1)c1cccc2ccccc12 (centres unmarked) [Cpd 177] | – | Cmax at 2 h [1]: 2 ± 1.1 µM
37 | CCN(CC)C(=O)COP(C)(=O)C(C(=O)NC=Cc1ccc(F)c(F)c1)c1csc2ccc(Cl)cc12 (centres unmarked) [Cpd 185, {(5-Chloro-benzo[b]thiophen-3-yl)-[2-(3,4-difluoro-phenyl)-vinylcarbamoyl]-methyl}-methyl-phosphinic acid diethylcarbamoylmethyl ester] | – | Cmax at 2 h [1]: 2.1 ± 0.23 µM
38 | CP(=O)(O)C(C(=O)N/C=C/c1cc(Cl)cc(Cl)c1)c1csc2ccc(Cl)cc12 (centres unmarked) [Cpd 170] | 0.0031 | –
